Assay results: patent EP0562731A1, “Substituted pyridinesulfonamide compounds or their salts, process for preparing the same, and herbicides containing the same” (ISHIHARA SANGYO KAISHA, Ltd., priority 1992, dated 1993)

How the values were obtained:
Assay in all cases: Test Example 1: foliar application pot test, visual growth control rating
Assay type in all cases: in vivo
Parameters in all cases: key: 1: the same as in an untreated plot; 10: perfect growth control
[1] = system: slender amaranth (Amaranthus viridis); conditions: wettable powder, observed 20 to 31 days after application
Description: (§1) 1/1,500 are [are (a) = 100 m²] pots were filled with upland farming soil, which in the pots was then sown with a variety of plants. The plants grown will be enumerated below.
(§2) When each plant reached a given growth stage (a 1.2- to 3.0-leaf stage for rice, primary leaf to a 0.7-leaf stage for soybean, 2.1- to 3.6-leaf stage for corn, cotyledon to 0.7-leaf stage for cotton, 2.0- to 3.0-leaf stage for wheat, 0.3- to 3.4-leaf stage for cocklebur, 0.3- to 1.6-leaf stage for morning glory, 0.1- to 1.3-leaf stage for prickly sida, 0.1- to 1.3-leaf stage for slender amaranth, 1.5- to 3.2-leaf stage for barnyard glass, and 1.2- to 3.0-leaf stage for large crabgrass), a predetermined amount of the herbicide of the present invention in the form of a wettable powder, weighed out, diluted with 5 ℓ/a of water and admixed with 0.2 or 0.1 vol%, based on the resulting composition, of an agricultural spreader, was foliarly applied to the plant with a small spray gun. The progress of growth of the plant was visually observed 20 to 31 days after the foliar application to evaluate the degree of growth control according to 10 ratings (1: the same as in an untreated plot - 10: perfect growth control).

[2] = system: cocklebur (Xanthium strumarium); conditions: wettable powder, observed 20 to 31 days after application
Description: as §1, §2

wheat (Triticum) = conditions: wettable powder, observed 20 to 31 days after application
Description: as §1, §2

corn (Zea mays) = conditions: wettable powder, observed 20 to 31 days after application
Description: as §1, §2

rice (Oryza sativa) = conditions: wettable powder, observed 20 to 31 days after application
Description: as §1, §2

[3] = system: morning glory (Ipomoea purpurea); conditions: wettable powder, observed 20 to 31 days after application
Description: as §1, §2

[4] = system: prickly sida (Sida spinosa); conditions: wettable powder, observed 20 to 31 days after application
Description: as §1, §2

soybean (Glycine max) = conditions: 1.25 g/a active ingredient, wettable powder, observed 20 to 31 days after application
Description: as §1, §2

[5] = system: large crabgrass (Digitaria adscendens); conditions: wettable powder, observed 20 to 31 days after application
Description: as §1, §2

[6] = system: barnyard grass (Echinochloa crus-galli); conditions: wettable powder, observed 20 to 31 days after application
Description: as §1, §2

Row | Structure (SMILES) | degree of growth control, XA ([2]; 0.31 g/a active ingredient) | degree of growth control, XA ([2]; 1.25 g/a active ingredient) | degree of growth control, TR (wheat (Triticum); 1.25 g/a active ingredient) | degree of growth control, ZE (corn (Zea mays); 1.25 g/a active ingredient) | degree of growth control, OR (rice (Oryza sativa); 1.25 g/a active ingredient) | degree of growth control, IP ([3]; 1.25 g/a active ingredient) | degree of growth control, DI ([5]; 1.25 g/a active ingredient) | degree of growth control, EC ([6]; 1.25 g/a active ingredient) | degree of growth control, EC ([6]; 0.31 g/a active ingredient) | degree of growth control, TR (wheat (Triticum); 0.31 g/a active ingredient) | degree of growth control, DI ([5]; 0.31 g/a active ingredient) | other results
1 | CCN(c1cccc(S(=O)(=O)NC(=O)Nc2nc(OC)nc(OC)n2)n1)S(=O)(=O)C(C)C [Compound No. 2, 6-[(N-ethyl-N-isopropylsulfonyl)amino]-N-[[(4,6-dimethoxytriazin-2-yl)amino]carbonyl]-2-pyridinesulfonamide] | 10 | 10 |  |  |  |  |  |  |  |  |  | degree of growth control, AM ([1]; 0.31 g/a active ingredient): 10; degree of growth control, AM ([1]; 1.25 g/a active ingredient): 10
2 | CCCN(c1cccc(S(=O)(=O)NC(=O)Nc2nc(C)nc(OC)n2)n1)S(=O)(=O)CC [Compound No. 3] |  | 8 | 4 | 8 | 6 | 5 | 6 | 9 |  |  |  | degree of growth control, SI ([4]; 1.25 g/a active ingredient): 6; degree of growth control, AM ([1]; 1.25 g/a active ingredient): 10; degree of growth control, GL (soybean (Glycine max)): 3
3 | CCCN(c1cccc(S(=O)(=O)NC(=O)Nc2nc(OC)nc(OC)n2)n1)S(=O)(=O)C(C)C [Compound No. 5] | 10 | 10 |  |  |  |  |  | 10 | 10 |  |  | 
4 | CCN(c1cccc(S(=O)(=O)NC(=O)Nc2nc(OC)nc(OC)n2)n1)S(=O)(=O)C(Cl)Cl [Compound No. 57, 6-[(N-dichloromethylsulfonyl-N-ethyl)amino]-N-[[(4,6-dimethoxytriazine-2-yl)amino]carbonyl]-2-pyridinesulfonamide] | 10 | 10 | 6 |  |  | 10 | 9 |  |  | 6 | 9 | degree of growth control, IP ([3]; 0.31 g/a active ingredient): 10
5 | COc1nc(C)nc(NC(=O)NS(=O)(=O)c2cccc(N(OC)S(=O)(=O)C(C)C)n2)n1 [compound 41] |  |  |  | 10 |  |  |  | 10 | 10 |  |  | degree of growth control, ZE (corn (Zea mays); 0.31 g/a active ingredient): 10
6 | CCN(c1cccc(S(=O)(=O)NC(=O)Nc2nc(C)nc(OC)n2)n1)S(=O)(=O)C(Cl)Cl [compound 56] | 10 | 10 | 10 | 10 | 9 |  | 10 | 10 | 10 | 10 | 10 | degree of growth control, ZE (corn (Zea mays); 0.31 g/a active ingredient): 10; degree of growth control, OR (rice (Oryza sativa); 0.31 g/a active ingredient): 9
7 | CCN(c1cccc(S(=O)(=O)NC(=O)Nc2nc(C)nc(OC)n2)n1)S(=O)(=O)C(C)(C)Cl [compound 87] | 10 | 10 |  |  |  |  |  |  |  |  |  | 
8 | COc1nc(C)nc(NC(=O)NS(=O)(=O)c2cccc(N(C)S(=O)(=O)C(Br)(Br)Br)n2)n1 [compound 89] | 10 | 10 |  |  |  |  | 7 |  |  |  | 7 | 
9 | CCN(c1cccc(S(=O)(=O)NC(=O)Nc2nc(C)nc(OC)n2)n1)S(=O)(=O)C(Br)(Br)Br [compound 90] | 10 | 10 |  |  |  |  | 6 | 10 | 10 |  | 6 | degree of growth control, SI ([4]; 0.31 g/a active ingredient): 6; degree of growth control, SI ([4]; 1.25 g/a active ingredient): 6
10 | CCN(c1cccc(S(=O)(=O)NC(=O)Nc2nc(C)nc(OC)n2)n1)S(=O)(=O)C(Cl)(Cl)Cl [compound 91] | 10 | 10 | 9 |  | 9 | 9 |  |  |  | 9 |  | degree of growth control, OR (rice (Oryza sativa); 0.31 g/a active ingredient): 9; degree of growth control, IP ([3]; 0.31 g/a active ingredient): 9
